The values below come from patent US12343430B2, “Methods of improving pharmaceutical substance solubilization and products thereof” (MUDANJIANG LINRUN PHARAMA EXCIPIENTS LLC., priority 2019, dated 2025).

Data set [1] in a line: Solubility time profile of co-attrited Carbamazepine at 37° C. (Example 12). The data set is classed as physicochemical. To be noted: 100 mL DI water, 0.45 μm filter, UV 285 nm. The text has this: All the final extrudant samples from Examples 8-11 were milled into powder and passed through an 80 mesh screen. […] At each sampling time, the solution sample was taken and filtered through a 0.45 μm syringe microfilter. […] For reference, the API Carbamazepine sample was used as control.

Data set [2] is described as follows: Solubility time profile of co-attrited Carbamazepine at 25° C., HPLC (Example 14). The data set is classed as physicochemical. To be noted: 500 mL DI water, paddle 100 rpm. The source says:
At each time interval, a given amount of solution was sampled and tested by an HPLC method.

≈ marks a conversion by molar mass, not a printed value.

In the case of `NC(=O)N1c2ccccc2C=Cc2ccccc21` [Carbamazepine API, Carbamazepine], the Solubility turned out to be 320 µg/mL (≈ 1350 µM) in data set [1] (60 min) and 288 µg/mL (≈ 1220 µM) in data set [1] (180 min). Further, the solubility at 5 min was 404 µg/mL (≈ 1710 µM) in data set [1] (deionised water, thermodynamic from solid, 5 min) and 89.2 µg/mL (≈ 377 µM) in data set [2] (deionised water, thermodynamic from solid, 5 minutes, read-out: Solubility, drug concentration). The solubility at 10 min worked out at 402 µg/mL (≈ 1700 µM) in data set [1] (deionised water, thermodynamic from solid, 10 min) and 176 µg/mL (≈ 743 µM) in data set [2] (deionised water, thermodynamic from solid, 10 minutes, read-out: Solubility, drug concentration). Moreover, the solubility at 15 min in data set [1] (deionised water, thermodynamic from solid, 15 min) was found to be 401 µg/mL (≈ 1700 µM). The same molecule registered a solubility at 90 min in data set [1] (deionised water, thermodynamic from solid, 90 min) of 316 µg/mL (≈ 1340 µM). This molecule displayed a solubility at 120 min in data set [1] (deionised water, thermodynamic from solid, 120 min) of 303 µg/mL (≈ 1280 µM). Also, the “Solubility, drug concentration” value in data set [2] (15 minutes) worked out at 225.68 µg/mL (≈ 955 µM); in data set [2] (30 minutes), 202.16 µg/mL (≈ 856 µM). In addition, in data set [2] (deionised water, thermodynamic from solid, 45 minutes, read-out: Solubility, drug concentration), the solubility at 45 min is 175 µg/mL (≈ 741 µM). Further, the solubility at 60 min in data set [2] (deionised water, thermodynamic from solid, 60 minutes, read-out: Solubility, drug concentration) stood at 173 µg/mL (≈ 731 µM).

For orientation: Solubility means the dissolved amount per volume that the medium holds. Read a high Solubility as a readily soluble substance.
